{
  "source": "patent EP0282456A2",
  "about": "“Mylbemycin derivatives to combat parasites on animals” (CIBA-GEIGY AG, priority 1987, dated 1988)",
  "key": {"[1]": {"test_system": "Haemonchus contortus und Trichostrongylus colubriformis", "assay": "Test on sheep infected with nematodes (worm egg count in faeces)", "type": "in vivo, Schaf", "settings": "single dose 0,2 mg/kg by stomach tube or intraruminal injection, compared with untreated infected controls", "procedure": "Der Wirkstoff wird als Suspension formuliert mit einer Magensonde oder durch Injektion in den Pansen eines Schafes gegeben, das mit Haemonchus contortus und Trychostrongylus colubriformis künstlich infiziert worden ist. Pro Dosis werden 1 bis 3 Tiere verwendet. Jedes Schaf wird nur einmal mit einer einzigen Dosis behandelt, und zwar wahlweise mit 0,5 mg oder 0,2 mg/kg Körpergewicht. Die Evaluierung erfolgt durch Vergleich der Anzahl der vor und nach Behandlung im Kot der Schafe ausgeschiedenen Wurmeier. Gleichzeitig und gleichartig infizierte aber unbehandelte Schafe dienen als Kontrolle."}, "[2]": {"test_system": "Dermanyssus gallinae", "assay": "Miticidal activity against Dermanyssus gallinae", "settings": "100 ppm test solution; about 200 mites; observed for three days", "procedure": "2 bis 3 ml einer Testlösung (100, 10, 1 und 0,1 ppm Aktivsubstanz) werden in einen nach oben offenen Glasbehälter gegeben und ca. 200 Milben in unterschiedlichen Entwicklungsstadien in diesen Behälter eingesetzt. Der Glasbehälter wird mit einem Wattebausch verschlossen und 10 Minuten gleichmässig, bis zur vollständigen Benetzung der Milben geschüttelt. Danach wird der Behälter umgekehrt hingestellt, bis die überschüssige Testlösung von der Watte aufgesogen ist. Der Behälter wird erneut gekehrt und die behandelten Milben zur Evaluierung der Wirksamkeit der Testsubstanzen drei Tage unter Laborbedingungen beobachtet, wobei die Mortalität als Massstab für Wirksamkeit herangezogen wird. Verbindungen aus den Tabellen, wie z.B. die Verbindungen H4 und H5 zeigen bei 100 ppm eine Wirkung von 1000/0."}, "[3]": {"test_system": "Li-Larven von Lucilia sericata", "assay": "Activity against L1 larvae of Lucilia sericata (mortality in larval culture medium)", "settings": "100 ppm active substance in larval medium; about 30 L1 larvae; mortality after 4 days", "procedure": "1 ml einer wässrigen Suspension der zu prüfenden Aktivsubstanz werden so mit 3 ml eines speziellen Larvenzuchtmediums bei ca. 50° C vermischt, dass ein Homogenisat von wahlweise 250 ppm oder 100 ppm Wirkstoffgehalt entsteht. In jede Reagenzglas-Probe werden ca. 30 Lucilia-Larven (L1) eingesetzt. Nach 4 Taben wird die Mortalitätsrate bestimmt. Verbindungen der Formel I aus den Tabellen, wie z.B. die Verbindungen H4 und H5 erzielten mit 100 ppm eine Wirkung von 100%."}},
  "data": [
    {"substance": "13-Vinyl-milbemycin A4 [H4]", "values": [
      {"measurement": "Nematodenbefall (Reduktion der Wurmeier im Kot)", "setting": "[1]", "result": "keinen Nematodenbefall"},
      {"measurement": "Wirkung (Mortalität)", "setting": "[2]", "result": "1000/0"},
      {"measurement": "Wirkung (Mortalitätsrate)", "setting": "[3]", "result": 100, "unit": "%"}
    ]},
    {"substance": "13ß-Vinyl-milbemycin A4 [H5]", "values": [
      {"measurement": "Nematodenbefall (Reduktion der Wurmeier im Kot)", "setting": "[1]", "result": "keinen Nematodenbefall"},
      {"measurement": "Wirkung (Mortalität)", "setting": "[2]", "result": "1000/0"},
      {"measurement": "Wirkung (Mortalitätsrate)", "setting": "[3]", "result": 100, "unit": "%"}
    ]}
  ]
}
